Test results from article PMC12563431, “The Esc(1-21)-1c Antimicrobial Peptide Inhibits a Specific Transcriptional Activator of the MexAB–OprM Efflux Pump in P. aeruginosa” (International Journal of Molecular Sciences, 2025).
Where no end group is shown, it is not given here. [ ]: non-standard residue; d: D form.

B1: His6-Q9I5H3 (natural protein)
chain: MRILLVEDHPQLAESVVQALKGAGWTVDLLQDGVAADLALASEEYALAILDVGLPRMDGFEVLARLRGRGKTLPVLMLTARGEVKDRVHGLNLGADDYLAKPFELSELEARVKALLRRSVLGGEQLQRCGALVYDLGTRRFSLDEQPLTLTSREQAVLEAMIARPGRVMSKEQLAAQVFGLDEEASADAIEIYVHRLRKKLEGGAVRIVTFRGLGYLLEAQGD
notes: also called recombinant Q9I5H3 protein; PA0756; source: E. coli BL21 (pET28a), purified (His-Trap FF IMAC; gel filtration on Superdex 75)

Assays:
[1] = tested on: Q9I5H3–DNA complex; assay: EMSA competition assay, Q9I5H3 binding to MexAB–OprM promoter DNA duplex; format: biochemical, P. aeruginosa; conditions: 30 μM Q9I5H3 pre-incubated with peptide (50 to 250 μM) 10 min at 25 °C, then 0.05 µM target DNA duplex for 20 min; 1.5% agarose gel, GelRed
Procedure: The putative effect of the Esc(1-21)-1c peptide on the Q9I5H3–DNA interaction was investigated by a competition assay in which the recombinant Q9I5H3 protein was pre-incubated with increasing concentrations of the peptide before adding the DNA probe. The protein–DNA complexes in the presence of different concentrations of Esc(1-21)-1c were again examined by EMSA.
The interaction of Q9I5H3 protein with DNA was investigated by EMSA experiments using the target DNA duplex as well as a control duplex-forming sequence generally used as a model of standard B-DNA duplex, the so-called Dickerson dodecamer (Supplementary Table S1). Sense and antisense oligonucleotides were annealed by incubation at 95 °C for 5 min and then gradual cooling to room temperature. Different concentrations of proteins were incubated with the DNA duplexes (0.05 µM) for 30 min at 25 °C in 20 µL of 25 mM HEPES pH 7.6, containing 50 mM KCl, 12.5 mM MgCl2, 1 mM DTT, 20% glycerol, 0.1% Triton.
For the assays, 30 μM of protein was pre-incubated with increasing concentrations of Esc(1-21)-1c for 10 min at 25 °C. Following this pre-incubation, the DNA duplex was added, and the mixture was incubated for additional 20 minutes under standard EMSA conditions.
All samples were separated on 1.5% agarose gel in Tris-borate-EDTA (TBE) running buffer at room temperature, using GelRed as dye. […]

[2] = tested on: MexA, MexB, and OprM proteins; conditions: sub-MIC dosages; cited from earlier work
Description: In the past years, we characterized the biological properties of a derivative of the frog-skin AMP esculentin-1a, namely Esc(1-21)-1c of sequence GIFSKLAGKKIKN^dLLI^dSGLKG-NH2 containing two D-amino acids, i.e., Leu14 and Ser17. […] Therefore, in-depth investigations are imperative to unravel the specific molecular mechanisms accounting for the downregulation of MexAB efflux pump by Esc(1-21)-1c. Here, we explored the intracellular mechanism of Esc(1-21)-1c at the molecular level by the identification of its putative interactors in P. aeruginosa. Functional proteomics approaches allowed us to ident ...

[3] = tested on: P. aeruginosa; conditions: levels below the MIC; cited from earlier work
Description: (§1) In the past years, we characterized the biological properties of a derivative of the frog-skin AMP esculentin-1a, namely Esc(1-21)-1c of sequence GIFSKLAGKKIKN^dLLI^dSGLKG-NH2 containing two D-amino acids, i.e., Leu14 and Ser17. […] Furthermore, very recent studies have provided new insights into the global impact of Esc (1-21)-1c on P. ...

[4] = tested on: P. aeruginosa biofilm; conditions: levels below the MIC; cited from earlier work
Description: as §1

[5] = target: Q9I5H3; assay: Fluorescence binding titration of Q9I5H3 dimer with Esc(1-21)-1c; set-up: species or system P. aeruginosa; conditions: intrinsic protein fluorescence, λexc 280 nm, emission 337 nm; 35 μM Q9I5H3 dimer, peptide 1.5 to 50 µM; 50 mM Tris-HCl pH 8.0, 150 mM NaCl, 20 °C; duplicate; one site specific binding fit; read-out: dissociation constant of the Esc(1-21)-1c–Q9I5H3 complex
Procedure: The interaction of the Esc(1-21)-1c peptide with Q9I5H3 was experimentally evaluated by fluorescence-based binding experiments. The dimeric form of the Q9I5H3 protein, purified by gel filtration, was titrated with increasing concentrations of Esc(1-21)-1c, and changes in the fluorescence emission of the protein were monitored (Figure 5).
Fluorescence experiments were performed on a Fluoromax-4 spectrofluorometer from Horiba Scientific, Piscataway, NJ, USA, using 1 cm optical path-length quartz cell under controlled temperature conditions (Peltier control system at 20 °C). Titrations were carried out in 50 mM Tris-HCl, pH 8.0 and 150 mM NaCl. Excitation wavelength used for the fluorescence titrations was 280 nm, and the spectra were recorded in the range 300–500 nm (slit 3 nm). Titrations were carried out at a fixed concentration (35 μM) of Q9I5H3 by adding increasing amounts of Esc(1-21)-1c peptide (from 1.5 to 50 µM), and the fluorescence emission was monitored at 337 nm. The experiments were performed in duplicate. The change in the fluorescence intensity was reported as a function of the peptide concentration and the data fitted with the “one site specific binding” equation of GraphPad Prism 9 (GraphPad Software LLC, La Jolla, CA, USA).

[6] = target: B1; assay: other fluorescence titration; intrinsic protein fluorescence (excitation 280 nm, emission 337 nm); 35 μM Q9I5H3 (dimeric form from gel filtration) fixed, Esc(1-21)-1c added from 1.5 to 50 µM; 50 mM Tris-HCl pH 8.0, 150 mM NaCl, 20 °C; duplicate; one site specific binding fit; conditions: both partners purified
[7] = target: the molecule itself; assay: SEC; Superdex 75 10/300 GL calibrated with standard proteins; 50 mM Tris-HCl pH 8.0, 150 mM NaCl; peaks at 7.8 mL and 11.5 mL; monomer and dimer
[8] = target: T1, Q9I5H3 (probable two-component response regulator, QseB homolog) (Pseudomonas aeruginosa, UniProt Q9I5H3 1-223); assay: EMSA; protein 5-70 uM, DNA 0.05 uM; conditions: protein: recombinant; tags: N-terminal His6 (pET28a); chain copies: 2; label: none (GelRed stain); blunt
T1 sequence: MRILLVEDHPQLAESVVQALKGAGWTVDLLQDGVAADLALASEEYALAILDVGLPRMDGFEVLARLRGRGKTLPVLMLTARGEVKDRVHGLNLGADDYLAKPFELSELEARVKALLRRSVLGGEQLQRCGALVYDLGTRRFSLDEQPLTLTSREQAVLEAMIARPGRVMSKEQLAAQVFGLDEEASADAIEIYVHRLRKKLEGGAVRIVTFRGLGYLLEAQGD

GIFSKLAGKKIKN^dLLI^dSGLKG-NH2 [Esc(1-21)-1c, derivative of the frog-skin AMP esculentin-1a containing two D-amino acids, Leu14 and Ser17]
peptide concentration at which the shifted Q9I5H3–DNA complex band completely disappeared [1]: 200 µM
effect on MexA, MexB, and OprM proteins [2]: significant downregulatory effect
effect with the antibiotic Aztreonam in inhibiting growth and killing P. aeruginosa [3]: synergic effect
effect on P. aeruginosa biofilm formation [4]: capability to prevent P. aeruginosa biofilm formation
Kd [5]: 10 ± 0.98 µM

GIFSKLAGKKIKN[dL]LI[dS]GLKG-NH2 (also called Esc(1-21)-1c peptide; AMP) [Esc(1-21)-1c]
Kd [6]: 10 ± 0.98 µM

B1
stoichiometry N [7]: 2

B2: MexAB-OprM (MexA) promoter target duplex (dsDNA)
DNA 1: CGAGTAAACCTAATGTAAATGTGGTTGATC
DNA 2: GATCAACCACATTTACATTAGGTTTACTCG
binding result [8]: binds
